Measured values: patent US20110129868A1, “CELL CAPABLE OF REPLICATING NOVEL HCV REPLICON, CELL CAPABLE OF REPLICATING FULL-LENGTH HCV RNA, AND USE OF THOSE CELLS” (priority 2008, published 2011)
Like-named read-outs stand apart in the source and are kept apart here.

B1: IFN-γ: interferon gamma (Sigma), pharmaceutical agent having an anti-HCV action (protein, UniProt P01579 24-161, looked up)
Interferon gamma: QDPYVKEAENLKKYFNAGHSDVADNGTLFLGILKNWKEESDRKIMQSQIVSFYFKLFKNFKDDQSIQKSVETIKEDMNVKFFNSNKKKRDDFEKLTNYSVTDLNVQRKAIHELIQVMAELSPAAKTGKRKRSQMLFRG

Tests used:
[1] = tested on: full-length HCV RNA replication in ORL11 cells; test: microbe, parasite or virus in culture; type: cell-based, HCV-O strain (genotype 1b)
Method: (§1) Renilla luciferase was quantified by collecting cells using a Renilla Luciferase Assay System (Promega) according to the manufacturer's experiment protocol.
(§2) Luciferase activity of each cell line was then measured at hour 24, 48, and 72. […] SD values were calculated based on the results from three samples at each point. […]

[2] = tested on: full-length HCV RNA replication in ORL8 cells; test: microbe, parasite or virus in culture; type: cell-based, HCV-O strain (genotype 1b); conditions: for EC50: Hepatitis C virus
Method: as §1, §2

[3] = tested on: full-length HCV RNA replication in OR6 cells; test: microbe, parasite or virus in culture; type: cell-based, HCV-O strain (genotype 1b)
From the text: as §1
An OR6-cell assay system was used as a control.

[4] = tested on: ORL8 cells; test: cell count by trypan blue staining, ORL8 cells; type: cell-based, human; conditions: drug at the concentration corresponding to the EC50 value
[5] = tested on: ORL11 cells; test: cell count by trypan blue staining, ORL11 cells; type: cell-based, human
[6] = tested on: OR6 cells; test: cell count by trypan blue staining, OR6 cells; type: cell-based, human; conditions: drug at the concentration corresponding to the EC50 value
[7] = tested on: HCV replicon of Con1 strain; conditions: cited from earlier work
[8] = tested on: full-length HCV RNA replication in OR6 cells; conditions: OR6 cell assay system (Naka et al., BBRC 2005); cited from earlier work
[9] = in vivo; cited from earlier work
[10] = tested on: ORL8, ORL11, and OR6 cells; test: cell count / cytotoxicity check, cell lines not itemised; conditions: at a concentration of 12.5 μM
Method: In order to ascertain that the decrease in luciferase activity in response to the addition of ribavirin was not due to the cell growth inhibition or cytotoxicity by ribavirin, the cells were cultured under the same conditions used for the luciferase assay, and counted using a trypan blue staining technique. The effect of adding ribavirin in the concentration corresponding to the EC50 value of each cell line was examined.
FLV (Calbiochem, 344095) was used.

[11] = ORL11 cells, drug at the concentration corresponding to the EC50 value, trypan blue
[12] = Hepatitis C virus, 72 h, luciferase activity after 72 hours, read-out: EC50
[13] = ORL8 cells, luciferase activity after 72 hours, read-out: EC50
[14] = Hepatitis C virus, OR6 cells, luciferase activity after 72 hours, read-out: EC50
[15] = drug concentrations based on the EC50 values
[16] = ORL8 cells, drug concentrations based on the EC50 values
[17] = OR6 cells, drug concentrations based on the EC50 values

| Molecule | cell count over the control cells [4] | cell count over the control cells [5, 11] | cell count over the control cells [6] | EC50 [1, 12] | EC50 [2, 13] | EC50 [3, 14] | also measured |
| --- | --- | --- | --- | --- | --- | --- | --- |
| CC(=O)Oc1ccccc1C(=O)O [ASA, Acetylsalicylic Acid] | 53% | 72% | 51% |  |  |  | EC50 ([1]; Hepatitis C virus, 72 h, luciferase activity after 72 hours): 1170 µM; EC50 ([2]; ORL8, 72 h): 1330 µM; EC50 ([3]; Hepatitis C virus, OR6, 72 h): 2160 µM; EC50 ([7]; HCV replicons of Con1 strain (Trujillo-Murillo et al.)): 4000 µM |
| CCC(C)(C)C(=O)O[C@H]1C[C@@H](C)C=C2C=C[C@H](C)[C@H](CC[C@@H]3C[C@@H](O)CC(=O)O3)[C@H]21 [SMV, Simvastatin] |  |  |  | 0.15 µM | 0.28 µM | 1.42 µM |  |
| COC1=C2C[C@@H](C)C[C@H](OC)[C@H](O)[C@@H](C)/C=C(\C)[C@H](OC(N)=O)[C@@H](OC)/C=C\C=C(/C)C(=O)NC(=CC1=O)C2=O [Geldanamycin] |  |  |  | 0.00331 µM | 0.00257 µM | 0.0021 µM |  |
| CCCCCCC(=O)CCCCCC/C=C/C[C@@H](O)[C@H](O)[C@@](N)(CO)C(=O)O [Myriocin] | 83.5% | ≥ 91% | ≥ 91% | 0.00362 µM | 0.00516 µM |  | luciferase activity (relative to no drug) ([3]; OR6 cells, at 5 nM to 40 nM, after 72 hours, EC50 not calculable): below 60%; EC50 ([7]; Con1 strain, analyzed 72 hours after the addition of the drug): 0.0058 µM |
| CC[C@H](C)C(=O)O[C@H]1C[C@@H](C)C=C2C=C[C@H](C)[C@H](CC[C@@H]3C[C@@H](O)CC(=O)O3)[C@H]21 [LOV, Lovastatin] |  |  |  | 1.04 µM | 1.49 µM | 3 µM |  |
| NC(=O)c1ncn([C@@H]2O[C@H](CO)[C@@H](O)[C@H]2O)c1O [Mizoribine] |  |  |  | 76.5 µM | 58.8 µM |  | luciferase activity (value relative to no drug) ([3]; OR6 cells, at 200 μM, after 72 hours): above 50% |
| O=C(O)C[C@H](O)C[C@H](O)/C=C/c1c(C2CC2)nc2ccccc2c1-c1ccc(F)cc1 [PTV, Pitavastatin] | ≥ 80% | ≥ 80% | ≥ 80% | 0.16 µM | 0.45 µM | 0.46 µM | luciferase activity after treatment (single agent or combined use) [1, 15]: 49%; luciferase activity after treatment (single agent or combined use) [2, 16]: 43%; luciferase activity after treatment (single agent or combined use) [3, 17]: 56% |
| NC(=O)c1ncn([C@@H]2O[C@H](CO)[C@@H](O)[C@H]2O)n1 [Ribavirin] | ≥ 98% | ≥ 98% | ≥ 98% | 15.9 µM | 10.1 µM | 119 µM | luciferase activity after treatment (single agent or combined use) ([1]; IFN-α at 0.25 IU/ml, ribavirin at 12.5 W): 49%; luciferase activity after treatment (single agent or combined use) ([2]; ORL8 cells, IFN-α at 0.25 IU/ml, ribavirin): 35%; luciferase activity after treatment (single agent or combined use) ([3]; OR6 cells, IFN-α at 0.25 IU/ml, ribavirin): 97%; EC50 [8]: 76 µM; blood concentrations [9]: 10 to 14 µM; cytotoxicity [10]: not recognized |
| CC(C)n1c(/C=C/C(O)CC(O)CC(=O)O)c(-c2ccc(F)cc2)c2ccccc21 (stereo not drawn) [FLV, Fluvastatin] | ≥ 97% | ≥ 97% | ≥ 97% | 0.32 µM | 0.28 µM | 1.22 µM | EC50 ([1]; FLV from a different manufacturer (LKT laboratories Inc., F4482), read-out: EC50): 0.14 µM; EC50 ([1]; Hepatitis C virus, FLV from a different manufacturer (LKT laboratories Inc., F4482), read-out: EC50): 0.11 µM; luciferase activity after treatment (single agent or combined use) [1, 15]: 51%; EC50 ([2]; ORL8 cells, FLV from a different manufacturer (LKT laboratories Inc., F4482), read-out: EC50): 0.31 µM; luciferase activity after treatment (single agent or combined use) [2, 16]: 59%; EC50 ([3]; Hepatitis C virus, OR6 cells, FLV from a different manufacturer (LKT laboratories Inc., F4482), read-out: EC50): 1.44 µM; luciferase activity after treatment (single agent or combined use) [3, 17]: 55% |
| B1 | ≥ 90% |  | ≥ 90% |  |  |  | EC50 (50% effective drug concentration) ([1]; luciferase activity after 72 hours): 0.13 IU/ml; EC50 (50% effective drug concentration) ([2]; ORL8 cells, luciferase activity after 72 hours): 0.077 IU/ml; EC50 ([3]; OR6 cells, luciferase activity after 72 hours): 0.21 IU/ml; cell count over the control cells [5]: ≥ 90% |
